Starred links: 1 amine or outer side, 2 acyl side, 3 side chain; linkers in the order of their positions; H or OH if unused. Non-standard residues stand in square brackets, D forms with d. Residues, ends and D or L forms follow the SMILES beside them. Groups on a side chain read outwards from the residue. *: point of attachment. C18 diacid = O=C(O)CCCCCCCCCCCCCCCCC(=O)*; γGlu = O=C(O)[C@H](CCC(=O)[*:2])N[*:1]; Palmitoyl = CCCCCCCCCCCCCCCC(=O)*; αMeF = C[C@](N)(Cc1ccccc1)C(=O)O; PEG4 = NCCOCCOCCOCCOCCC(=O)O; PEG2 = NCCOCCOCCC(=O)O; AEEA = NCCOCCOCC(=O)O; Aib = CC(C)(N)C(=O)O

The target of assay [1] is human GLP-1 receptor (hGLP-1R) (Homo sapiens, UniProt P43220). Nature of the assay: cAMP production (HTRF) in CHO cells expressing hGLP-1R. It is filed as cell-based. The arrangement: expressed in transfected cells. As to conditions: for EC50: Table 6, peptides modified at position 17, cAMP in CHO hGLP-1R cells, geometric mean, read-out: hGLP-1R EC50; for % Relative Potency Ratio: Table 6, % GLP-1R activity relative to GLP-1 / % GlucR activity relative to glucagon. The method in brief:
(§1)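 Potency values represent EC50 from 4-parameter logistic curves of HTRF % Delta F signal. Receptor-expressing CHO cells (hGCGR 2×10^5 cells/mL, hGLP-1R 1×10^5 cells/mL) were exposed for 30 min at room temperature before two-step cAMP detection.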

The target of assay [2] is human glucagon receptor (hGCGR) (Homo sapiens, UniProt P47871). Nature of the assay: cAMP production (HTRF) in CHO cells expressing hGCGR. It is filed as cell-based. The arrangement: expressed in transfected cells. As to conditions: Table 6, peptides modified at position 17; cAMP in CHO hGCGR cells; geometric mean; read-out: hGluc-R EC50. The method in brief: as §1
Chain of human glucagon receptor (hGCGR) (P47871 26-477): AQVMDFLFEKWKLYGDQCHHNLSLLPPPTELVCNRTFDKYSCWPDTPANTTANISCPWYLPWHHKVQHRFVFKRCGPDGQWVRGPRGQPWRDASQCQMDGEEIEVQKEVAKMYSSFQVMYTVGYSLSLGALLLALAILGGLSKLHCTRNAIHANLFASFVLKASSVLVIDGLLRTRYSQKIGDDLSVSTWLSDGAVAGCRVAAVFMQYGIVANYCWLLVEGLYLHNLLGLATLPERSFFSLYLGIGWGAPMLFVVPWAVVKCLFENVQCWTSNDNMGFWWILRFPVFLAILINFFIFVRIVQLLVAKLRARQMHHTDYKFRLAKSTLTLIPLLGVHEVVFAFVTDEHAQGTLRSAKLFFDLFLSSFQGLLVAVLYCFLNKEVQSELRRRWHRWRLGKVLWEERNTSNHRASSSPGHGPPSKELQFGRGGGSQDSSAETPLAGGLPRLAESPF

Chain of human GLP-1 receptor (hGLP-1R) (P43220 24-463): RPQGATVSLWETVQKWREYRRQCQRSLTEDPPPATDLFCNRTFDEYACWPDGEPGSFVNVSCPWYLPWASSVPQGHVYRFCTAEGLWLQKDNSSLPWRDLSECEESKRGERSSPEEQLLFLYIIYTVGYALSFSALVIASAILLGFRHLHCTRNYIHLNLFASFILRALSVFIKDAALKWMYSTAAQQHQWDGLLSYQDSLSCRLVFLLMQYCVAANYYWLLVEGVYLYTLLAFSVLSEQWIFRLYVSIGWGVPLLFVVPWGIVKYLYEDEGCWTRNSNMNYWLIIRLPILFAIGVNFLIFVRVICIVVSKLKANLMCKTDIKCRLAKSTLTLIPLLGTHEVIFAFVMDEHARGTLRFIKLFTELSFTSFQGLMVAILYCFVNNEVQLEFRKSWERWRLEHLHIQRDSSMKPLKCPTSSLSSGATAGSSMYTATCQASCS

In the case of `CC(C)C[C@H](NC(=O)[C@H](Cc1c[nH]c2ccccc12)NC(=O)[C@H](CCCNC(=N)N)NC(=O)[C@@H](NC(=O)[C@H](Cc1ccccc1)NC(=O)[C@H](CC(=O)O)NC(=O)[C@H](CCC(N)=O)NC(=O)[C@H](C)NC(=O)[C@H](CCCNC(=N)N)NC(=O)[C@H](CCCCNC(=O)COCCOCCNC(=O)COCCOCCNC(=O)CC[C@H](NC(=O)CCCCCCCCCCCCCCCCC(=O)O)C(=O)O)NC(=O)[C@H](CCCNC(=N)N)NC(=O)[C@H](CC(=O)O)NC(=O)[C@H](CC(C)C)NC(=O)[C@](C)(Cc1ccccc1)NC(=O)[C@H](CCCCN)NC(=O)[C@H](CO)NC(=O)[C@@H](NC(=O)[C@H](CC(=O)O)NC(=O)[C@H](CO)NC(=O)[C@@H](NC(=O)[C@H](Cc1ccccc1)NC(=O)[C@@H](NC(=O)CNC(=O)[C@H](CCC(N)=O)NC(=O)C(C)(C)NC(=O)[C@@H](N)Cc1c[nH]cn1)[C@@H](C)O)[C@@H](C)O)C(C)C)C(C)C)C(=O)N[C@@H](CC(C)C)C(=O)NC(C)(C)C(=O)N[C@H](C(=O)N[C@@H](CCC(=O)O)C(=O)O)[C@@H](C)O` [Peptide 421] (H-H[Aib]QGTFTSDVSK[αMeF]LDRK([AEEA-AEEA-γGlu-C18 diacid])RAQDFVRWLL[Aib]TE-OH; N-terminus assumed), in assay [1], the half-maximal effective concentration (EC50) was 0.0873 nM and the “% Relative Potency Ratio” value is listed as 4.1. For the same molecule, the 50% effective concentration (EC50) in assay [2] was found to be 0.18 nM.

As for `CCCCCCCCCCCCCCCC(=O)N[C@@H](CCC(=O)N[C@@H](CCC(=O)NCCOCCOCCC(=O)NCCOCCOCCC(=O)NCCCC[C@H](NC(=O)[C@H](CO)NC(=O)[C@H](CC(=O)O)NC(=O)[C@H](CC(C)C)NC(=O)C(C)(C)NC(=O)[C@H](CCCCN)NC(=O)[C@H](CO)NC(=O)[C@@H](NC(=O)[C@H](CC(=O)O)NC(=O)[C@H](CO)NC(=O)[C@@H](NC(=O)[C@](C)(Cc1ccccc1)NC(=O)[C@H](CO)NC(=O)CNC(=O)[C@H](CCC(N)=O)NC(=O)[C@H](CO)NC(=O)[C@@H](N)Cc1c[nH]cn1)[C@@H](C)O)C(C)C)C(=O)N[C@@H](C)C(=O)N[C@@H](C)C(=O)N[C@@H](CCC(N)=O)C(=O)N[C@@H](CC(=O)O)C(=O)N[C@@](C)(Cc1ccccc1)C(=O)N[C@H](C(=O)N[C@@H](CCC(N)=O)C(=O)NC(C)(C)C(=O)N[C@H](C(=O)N[C@@H](C)C(=O)N[C@@H](CC(N)=O)C(N)=O)[C@@H](C)CC)C(C)C)C(=O)O)C(=O)O` [Peptide 99] (H-HSQGS[αMeF]TSDVSK[Aib]LDSK([PEG2-PEG2-γGlu-γGlu-Palmitoyl])AAQD[αMeF]VQ[Aib]IAN-NH2; N-terminus assumed), the EC50 in assay [1] is 0.00221 nM; in assay [2], 0.0332 nM. In assay [1], the “% Relative Potency Ratio” value worked out at 29.7.

For the molecule `CC(C)C[C@H](NC(=O)[C@H](Cc1c[nH]c2ccccc12)NC(=O)[C@H](CCC(N)=O)NC(=O)[C@@H](NC(=O)[C@H](Cc1ccccc1)NC(=O)[C@H](CC(=O)O)NC(=O)[C@H](CCC(N)=O)NC(=O)[C@H](C)NC(=O)[C@H](CCCNC(=N)N)NC(=O)[C@H](CCCCNC(=O)COCCOCCNC(=O)COCCOCCNC(=O)CC[C@H](NC(=O)CCCCCCCCCCCCCCCCC(=O)O)C(=O)O)NC(=O)[C@H](CO)NC(=O)[C@H](CC(=O)O)NC(=O)[C@H](CC(C)C)NC(=O)[C@](C)(Cc1ccccc1)NC(=O)[C@H](CCCCN)NC(=O)[C@H](CO)NC(=O)[C@H](Cc1ccc(O)cc1)NC(=O)[C@H](CC(=O)O)NC(=O)[C@H](CO)NC(=O)[C@@H](NC(=O)[C@H](Cc1ccccc1)NC(=O)[C@@H](NC(=O)CNC(=O)[C@H](CCC(N)=O)NC(=O)C(C)(C)NC(=O)[C@@H](N)Cc1c[nH]cn1)[C@@H](C)O)[C@@H](C)O)C(C)C)C(=O)N[C@H](C(=O)NCCOCCOCCOCCOCCC(N)=O)C(C)C` [Peptide 41] (H-H[Aib]QGTFTSDYSK[αMeF]LDSK([AEEA-AEEA-γGlu-C18 diacid])RAQDFVQWLV[PEG4]-NH2; N-terminus assumed), the EC50 was 0.663 nM in assay [1] and 5.74 nM in assay [2]. Further, in assay [1], the “% Relative Potency Ratio” value worked out at 17.1.

For the molecule `CC(C)C[C@H](NC(=O)[C@H](Cc1c[nH]c2ccccc12)NC(=O)[C@H](CCCNC(=N)N)NC(=O)[C@@H](NC(=O)[C@H](Cc1ccccc1)NC(=O)[C@H](CC(=O)O)NC(=O)[C@H](CCC(N)=O)NC(=O)[C@H](C)NC(=O)[C@H](CCCNC(=N)N)NC(=O)[C@H](CCCCNC(=O)COCCOCCNC(=O)COCCOCCNC(=O)CC[C@H](NC(=O)CCCCCCCCCCCCCCCCC(=O)O)C(=O)O)NC(=O)[C@H](CCCCN)NC(=O)[C@H](CC(=O)O)NC(=O)[C@H](CC(C)C)NC(=O)[C@](C)(Cc1ccccc1)NC(=O)[C@H](CCCCN)NC(=O)[C@H](CO)NC(=O)[C@@H](NC(=O)[C@H](CC(=O)O)NC(=O)[C@H](CO)NC(=O)[C@@H](NC(=O)[C@H](Cc1ccccc1)NC(=O)[C@@H](NC(=O)CNC(=O)[C@H](CCC(N)=O)NC(=O)C(C)(C)NC(=O)[C@@H](N)Cc1c[nH]cn1)[C@@H](C)O)[C@@H](C)O)C(C)C)C(C)C)C(=O)N[C@@H](CCCCN)C(=O)NC(C)(C)C(=O)N[C@H](C(=O)N[C@@H](CCC(=O)O)C(=O)O)[C@@H](C)O` [Peptide 423] (H-H[Aib]QGTFTSDVSK[αMeF]LDKK([AEEA-AEEA-γGlu-C18 diacid])RAQDFVRWLK[Aib]TE-OH; N-terminus assumed), in assay [1], the EC50 came out at 0.0261 nM and the “% Relative Potency Ratio” value is 168.1. For the same molecule, the concentration giving a half-maximal response (EC50) in assay [2] came out at 2.22 nM.

`CC(C)C[C@H](NC(=O)[C@H](Cc1c[nH]c2ccccc12)NC(=O)[C@H](CCCNC(=N)N)NC(=O)[C@@H](NC(=O)[C@H](Cc1ccccc1)NC(=O)[C@H](CC(=O)O)NC(=O)[C@H](CCC(N)=O)NC(=O)[C@H](C)NC(=O)[C@H](CCCNC(=N)N)NC(=O)[C@H](CCCCNC(=O)COCCOCCNC(=O)COCCOCCNC(=O)CC[C@H](NC(=O)CCCCCCCCCCCCCCCCC(=O)O)C(=O)O)NC(=O)[C@H](CCCCN)NC(=O)[C@H](CC(=O)O)NC(=O)[C@H](CC(C)C)NC(=O)[C@](C)(Cc1ccccc1)NC(=O)[C@H](CCCCN)NC(=O)[C@H](CO)NC(=O)[C@@H](NC(=O)[C@H](CC(=O)O)NC(=O)[C@H](CO)NC(=O)[C@@H](NC(=O)[C@H](Cc1ccccc1)NC(=O)[C@@H](NC(=O)CNC(=O)[C@H](CCC(N)=O)NC(=O)C(C)(C)NC(=O)[C@@H](N)Cc1c[nH]cn1)[C@@H](C)O)[C@@H](C)O)C(C)C)C(C)C)C(=O)N[C@@H](CCC(=O)O)C(=O)N[C@@H](C)C(=O)NC(C)(C)C(=O)NCC(N)=O` [Peptide 438] (H-H[Aib]QGTFTSDVSK[αMeF]LDKK([AEEA-AEEA-γGlu-C18 diacid])RAQDFVRWLEA[Aib]G-NH2; N-terminus assumed): in assay [1], the 50% effective concentration (EC50) is 0.0179 nM and the “% Relative Potency Ratio” value came out at 7.6. For the same molecule, the EC50 in assay [2] turned out to be 0.0689 nM.

One may read the EC50 as the concentration at which the effect is half-maximal.

(Values after patent US20250353891A1 (MEDIMMUNE LIMITED, priority 2022, published 2025).)
